Assay results taken from patent publication US20140296216A1, “PYRIMIDO[4,5-D]PYRIMIDINYL COMPOUNDS, PHARMACEUTICAL COMPOSITIONS AND USES THEREOF” (GUANGZHOU INSTITUTE OF BIOMEDICINE AND HEALTH, CHINESE …, priority 2011, published 2014).

Columns and labels:
[1] = test system: HCC827 (lung cancer cells, EGFR E746-A750 deletion); experiment: Cell proliferation by MTT, HCC827; type: cell-based; settings: Homo sapiens, HCC827, read-out: HCC827 50% inhibitory concentration (IC50), 72 h
EGFRL858R = EGFRL858R (Homo sapiens, UniProt P00533, L858R); experiment: In vitro enzymatic activity assay (Z'-LYTE), EGFR L858R; type: biochemical; settings: Z'-LYTE FRET peptide assay; read-out: EGFRL858R kinase activity (IC50)
Source text: (§1) In vitro enzymatic activity assay: using Z′-LYTE™ technology (detect fluorescence, coupled-enzyme format, based on the differential sensitivity of phosphorylated and non-phosphorylated peptides to proteolytic cleavage), based on FRET, using Z′ LYTE™ FRET peptide substrate, detect the activity of compounds against enzymatic. […] After one hour, site specific protease which can recognize and cleaves non-phosphorylated FRET-peptide. After another hour, using an excitation wavelength of 400 nm excites, then detect the […] at 445 nm and 520 nm.

EGFRWT = EGFRWT (Homo sapiens, UniProt P00533); experiment: In vitro enzymatic activity assay (Z'-LYTE), wild type EGFR; type: biochemical; settings: Z'-LYTE FRET peptide assay; read-out: EGFRWT kinase activity (IC50)
Chain of EGFRWT (P00533 25-1210): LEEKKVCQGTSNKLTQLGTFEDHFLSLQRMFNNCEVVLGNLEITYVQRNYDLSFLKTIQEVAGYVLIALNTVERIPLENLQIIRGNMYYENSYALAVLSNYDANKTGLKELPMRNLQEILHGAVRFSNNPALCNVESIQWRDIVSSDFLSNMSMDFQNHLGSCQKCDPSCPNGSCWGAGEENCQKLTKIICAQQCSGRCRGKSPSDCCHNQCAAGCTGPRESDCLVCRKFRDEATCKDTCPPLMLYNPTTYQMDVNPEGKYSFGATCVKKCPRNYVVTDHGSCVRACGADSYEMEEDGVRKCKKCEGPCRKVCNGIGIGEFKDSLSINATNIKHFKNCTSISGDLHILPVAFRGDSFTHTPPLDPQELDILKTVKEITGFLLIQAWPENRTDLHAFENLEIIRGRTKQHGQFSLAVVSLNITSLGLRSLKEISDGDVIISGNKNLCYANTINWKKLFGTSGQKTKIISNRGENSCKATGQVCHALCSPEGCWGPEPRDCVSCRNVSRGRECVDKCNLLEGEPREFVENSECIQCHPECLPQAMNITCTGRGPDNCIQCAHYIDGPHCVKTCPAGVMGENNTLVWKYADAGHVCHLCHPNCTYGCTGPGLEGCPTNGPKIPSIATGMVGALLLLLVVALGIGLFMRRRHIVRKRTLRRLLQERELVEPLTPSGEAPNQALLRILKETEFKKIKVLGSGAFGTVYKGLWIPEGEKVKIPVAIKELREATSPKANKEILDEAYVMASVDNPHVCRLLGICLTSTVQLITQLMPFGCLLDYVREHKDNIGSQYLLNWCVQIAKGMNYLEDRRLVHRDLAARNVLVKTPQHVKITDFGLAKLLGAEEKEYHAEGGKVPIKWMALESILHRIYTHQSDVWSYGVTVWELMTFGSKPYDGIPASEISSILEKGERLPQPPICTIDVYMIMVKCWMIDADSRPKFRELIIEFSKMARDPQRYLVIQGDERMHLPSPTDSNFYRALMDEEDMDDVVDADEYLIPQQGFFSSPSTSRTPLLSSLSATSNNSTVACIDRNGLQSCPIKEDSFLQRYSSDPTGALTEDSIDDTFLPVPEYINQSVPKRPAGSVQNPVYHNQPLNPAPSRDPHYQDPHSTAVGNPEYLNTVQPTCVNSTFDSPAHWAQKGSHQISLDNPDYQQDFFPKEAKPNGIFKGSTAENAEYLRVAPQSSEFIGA
Source text: as §1

EGFR T790M kinase = target: T1, EGFR T790M kinase (Homo sapiens, UniProt P00533, T790M); experiment: In vitro enzymatic activity assay (Z'-LYTE), EGFR T790M; type: biochemical; settings: Z'-LYTE FRET peptide assay; read-out: EGFRT790M kinase activity (IC50)
T1 construct: purchased invitrogen PV4803
T1 sequence (P00533 25-1210 T790M): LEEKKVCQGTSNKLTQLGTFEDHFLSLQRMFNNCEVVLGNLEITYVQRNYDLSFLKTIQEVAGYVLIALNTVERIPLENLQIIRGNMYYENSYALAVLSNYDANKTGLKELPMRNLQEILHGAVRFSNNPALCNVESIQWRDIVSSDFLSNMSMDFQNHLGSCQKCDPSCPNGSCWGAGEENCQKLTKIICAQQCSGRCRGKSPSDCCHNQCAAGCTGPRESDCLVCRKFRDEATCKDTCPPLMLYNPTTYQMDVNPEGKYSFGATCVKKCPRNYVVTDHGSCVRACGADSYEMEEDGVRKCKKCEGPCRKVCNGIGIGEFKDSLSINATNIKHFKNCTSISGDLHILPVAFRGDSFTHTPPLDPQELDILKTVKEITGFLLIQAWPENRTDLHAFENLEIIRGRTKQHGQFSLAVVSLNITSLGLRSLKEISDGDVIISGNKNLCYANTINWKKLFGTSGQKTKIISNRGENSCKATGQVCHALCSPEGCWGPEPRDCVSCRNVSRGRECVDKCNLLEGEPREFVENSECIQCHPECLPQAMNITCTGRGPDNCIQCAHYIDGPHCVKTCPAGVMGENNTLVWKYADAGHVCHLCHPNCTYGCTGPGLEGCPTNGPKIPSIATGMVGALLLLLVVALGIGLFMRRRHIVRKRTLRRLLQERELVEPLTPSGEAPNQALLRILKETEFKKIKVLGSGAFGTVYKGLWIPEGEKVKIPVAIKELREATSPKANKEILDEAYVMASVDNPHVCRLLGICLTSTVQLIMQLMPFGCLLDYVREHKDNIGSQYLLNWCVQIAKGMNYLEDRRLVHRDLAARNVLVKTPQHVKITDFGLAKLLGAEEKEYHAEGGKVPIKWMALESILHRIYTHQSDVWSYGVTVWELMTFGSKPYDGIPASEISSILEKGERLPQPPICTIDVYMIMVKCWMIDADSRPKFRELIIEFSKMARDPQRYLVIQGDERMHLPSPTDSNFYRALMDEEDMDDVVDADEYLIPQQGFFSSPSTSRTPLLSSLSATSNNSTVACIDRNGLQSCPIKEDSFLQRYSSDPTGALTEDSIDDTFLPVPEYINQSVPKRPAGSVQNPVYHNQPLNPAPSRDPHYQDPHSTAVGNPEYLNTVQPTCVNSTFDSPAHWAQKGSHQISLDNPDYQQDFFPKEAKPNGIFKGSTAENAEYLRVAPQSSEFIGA
Source text: as §1

EGFRL861Q = EGFRL861Q (Homo sapiens, UniProt P00533, L861Q); experiment: In vitro enzymatic activity assay (Z'-LYTE), EGFR L861Q; type: biochemical; settings: Z'-LYTE FRET peptide assay; read-out: EGFRL861Q kinase activity (IC50)
Chain of EGFRL861Q (P00533 25-1210 L861Q): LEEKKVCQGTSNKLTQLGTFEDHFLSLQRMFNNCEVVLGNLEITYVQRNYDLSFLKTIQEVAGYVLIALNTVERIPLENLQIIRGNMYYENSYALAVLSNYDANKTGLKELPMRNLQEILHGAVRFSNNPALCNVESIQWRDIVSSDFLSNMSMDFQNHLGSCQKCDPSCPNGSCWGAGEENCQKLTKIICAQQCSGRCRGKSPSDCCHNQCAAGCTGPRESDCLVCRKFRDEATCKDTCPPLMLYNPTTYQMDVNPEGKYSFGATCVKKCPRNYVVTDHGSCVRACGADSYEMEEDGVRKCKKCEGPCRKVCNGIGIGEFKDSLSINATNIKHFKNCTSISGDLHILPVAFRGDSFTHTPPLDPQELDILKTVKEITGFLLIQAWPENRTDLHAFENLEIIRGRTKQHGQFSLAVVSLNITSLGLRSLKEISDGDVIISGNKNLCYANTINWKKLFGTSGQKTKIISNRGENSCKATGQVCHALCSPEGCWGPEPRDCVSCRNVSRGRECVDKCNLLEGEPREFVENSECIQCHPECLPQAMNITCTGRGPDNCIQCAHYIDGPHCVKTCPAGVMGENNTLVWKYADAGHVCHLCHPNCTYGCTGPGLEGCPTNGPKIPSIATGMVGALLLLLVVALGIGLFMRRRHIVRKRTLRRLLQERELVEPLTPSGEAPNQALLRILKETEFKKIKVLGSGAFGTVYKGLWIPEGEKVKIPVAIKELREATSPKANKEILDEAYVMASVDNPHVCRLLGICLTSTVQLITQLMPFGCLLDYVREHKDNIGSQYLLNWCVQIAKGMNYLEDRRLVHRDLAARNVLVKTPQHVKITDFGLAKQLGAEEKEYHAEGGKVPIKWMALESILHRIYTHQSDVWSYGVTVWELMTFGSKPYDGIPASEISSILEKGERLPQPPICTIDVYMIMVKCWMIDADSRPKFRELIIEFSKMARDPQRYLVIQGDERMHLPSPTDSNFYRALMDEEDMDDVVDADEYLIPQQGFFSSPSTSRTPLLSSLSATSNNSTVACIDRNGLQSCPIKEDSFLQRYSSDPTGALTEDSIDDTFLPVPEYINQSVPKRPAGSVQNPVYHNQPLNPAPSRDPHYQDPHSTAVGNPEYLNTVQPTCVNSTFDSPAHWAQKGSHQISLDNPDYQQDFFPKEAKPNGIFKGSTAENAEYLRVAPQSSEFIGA
Source text: as §1

[2] = test system: H1975 (lung cancer cells, EGFR L858R&T790M); experiment: Cell proliferation by MTT, H1975; type: cell-based; settings: Homo sapiens, NCI-H1975, read-out: H1975 50% inhibitory concentration (IC50), 72 h
EGFRL858R + T790M = EGFRL858R + T790M (Homo sapiens, UniProt P00533, L858R/T790M); experiment: In vitro enzymatic activity assay (Z'-LYTE), EGFR L858R + T790M; type: biochemical; settings: Z'-LYTE FRET peptide assay; read-out: EGFRL858R + T790M kinase activity (IC50)
Chain of EGFRL858R + T790M (P00533 25-1210 T790M/L858R): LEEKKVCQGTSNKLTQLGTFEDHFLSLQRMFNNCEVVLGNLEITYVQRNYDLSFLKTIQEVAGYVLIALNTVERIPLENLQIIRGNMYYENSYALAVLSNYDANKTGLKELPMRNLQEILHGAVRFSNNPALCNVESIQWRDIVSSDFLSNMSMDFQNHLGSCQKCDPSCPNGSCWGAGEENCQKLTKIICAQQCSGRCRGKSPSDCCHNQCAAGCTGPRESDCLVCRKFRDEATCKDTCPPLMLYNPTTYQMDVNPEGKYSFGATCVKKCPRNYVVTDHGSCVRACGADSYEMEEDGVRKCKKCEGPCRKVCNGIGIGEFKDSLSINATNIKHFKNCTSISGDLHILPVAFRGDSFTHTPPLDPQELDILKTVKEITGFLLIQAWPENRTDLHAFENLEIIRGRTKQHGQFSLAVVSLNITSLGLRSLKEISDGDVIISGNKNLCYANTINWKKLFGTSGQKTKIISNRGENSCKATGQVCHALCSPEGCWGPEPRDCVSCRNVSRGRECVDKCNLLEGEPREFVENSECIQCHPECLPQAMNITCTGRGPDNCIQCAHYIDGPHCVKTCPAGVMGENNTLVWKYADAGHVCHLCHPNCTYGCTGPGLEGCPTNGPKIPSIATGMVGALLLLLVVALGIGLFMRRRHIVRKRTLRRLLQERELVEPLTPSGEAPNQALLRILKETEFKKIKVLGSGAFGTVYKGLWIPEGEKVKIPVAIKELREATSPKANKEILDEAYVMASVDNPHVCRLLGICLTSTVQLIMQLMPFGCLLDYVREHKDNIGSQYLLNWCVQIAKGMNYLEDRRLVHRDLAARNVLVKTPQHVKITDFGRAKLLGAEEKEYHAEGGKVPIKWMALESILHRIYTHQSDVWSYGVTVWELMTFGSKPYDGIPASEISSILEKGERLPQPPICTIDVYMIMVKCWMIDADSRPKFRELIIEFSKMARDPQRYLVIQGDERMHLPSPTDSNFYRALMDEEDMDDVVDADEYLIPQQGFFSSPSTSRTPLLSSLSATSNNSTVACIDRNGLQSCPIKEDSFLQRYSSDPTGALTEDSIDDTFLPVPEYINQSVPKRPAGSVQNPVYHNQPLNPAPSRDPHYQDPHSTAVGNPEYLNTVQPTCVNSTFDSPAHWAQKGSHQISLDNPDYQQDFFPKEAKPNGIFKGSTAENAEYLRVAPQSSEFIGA
Source text: as §1

[3] = test system: A431 (Human epidermal carcinoma, EGFR high expression); experiment: Cell proliferation by MTT, A431; type: cell-based; settings: A-431, read-out: A431 50% inhibitory concentration (IC50), 72 h
[4] = test system: NCI-H820 (lung cancer cells); experiment: Cell proliferation by MTT, NCI-H820; type: cell-based; settings: NCI-H820, read-out: NCI-H820 50% inhibitory concentration (IC50), 72 h

Row | SMILES | IC50 [1] [µM] | IC50 (EGFRL858R) [µM] | IC50 (EGFRWT) [µM] | IC50 (EGFR T790M kinase) [µM] | IC50 (EGFRL861Q) [µM] | IC50 [2] [µM] | IC50 (EGFRL858R + T790M) [µM] | IC50 [3] [µM] | IC50 [4] [µM]
1 | C=CC(=O)Nc1cccc(N2C(=O)N(C)Cc3cnc(Nc4ccc(N5CCOCC5)cc4OC)nc32)c1 [C-EGF08, N-(3-(7-(2-methoxy-4-morpholinophenylamino)-3-methyl-2-oxo-3,4-dihydropyrimido[4,5-d]pyrimidin-1(2H)-yl)phenyl)acrylamide] | 0.159 | 0.01 to 0.1 | 0.01 to 0.1 | 0.01 to 0.1 | 0.01 to 0.1 | 0.159 | 0.01 to 0.1 | 21.2 | > 100
2 | C=CC(=O)Nc1cccc(N2C(=O)N(C)Cc3cnc(Nc4ccccc4)nc32)c1 [C-EGF10, N-(3-(3-methyl-2-oxo-7-(phenylamino)-3,4-dihydropyrimido[4,5-d]pyrimidin-1(2H)-yl)phenyl)acrylamide] | 0.028 | 0.01 to 0.1 | ≤ 0.01 | ≤ 0.01 | 0.01 to 0.1 | 0.213 | 0.01 to 0.1 | 1.58 | > 100
3 | C=CC(=O)Nc1cccc(N2C(=O)N(C)Cc3cnc(N4CCN(C)CC4)nc32)c1 [C-EGF19, N-(3-(3-methyl-7-(4-methylpiperazin-1-yl)-2-oxo-3,4-dihydropyrimido[4,5-d]pyrimidin-1(2H)-yl)phenyl)acrylamide] | > 100 | ≥ 10 | ≥ 10 | ≥ 10 | 0.1 to 1 | 12.1 | 1 to 10 | > 100 | 95.7
4 | C=CC(=O)Nc1cccc(N2C(=O)N(C)Cc3cnc(NC)nc32)c1 [C-EGF21, N-(3-(3-methyl-7-(methylamino)-2-oxo-3,4-dihydropyrimido[4,5-d]pyrimidin-1 (2H)-yl)phenyl)acrylamide] | 11.9 | 0.1 to 1 | 0.1 to 1 | ≥ 10 | 1 to 10 | 22.5 | 0.1 to 1 | > 100 | > 100
5 | C=CC(=O)Nc1cccc(N2C(=O)N(C)Cc3cnc(Nc4ccc(OCCOC)cc4OC)nc32)c1 [C-EGF22, N-(3-(7-(2-methoxy-4-(2-methoxyethoxy)phenylamino)-3-methyl-2-oxo-3,4-dihydropyrimido[4,5-d]pyrimidin-1(2H)-yl)phenyl)acrylamide] | 0.495 | ≤ 0.01 | ≤ 0.01 | 0.01 to 0.1 | ≤ 0.01 | 1.07 | 0.01 to 0.1 | 24.9 | > 100
6 | C=CC(=O)Nc1cccc(N2C(=O)N(C)Cc3cnc(Nc4ccc(N(C)C)cc4OC)nc32)c1 [C-EGF23, N-(3-(7-(4-(dimethylamino)-2-methoxyphenylamino)-3-methyl-2-oxo-3,4-dihydropyrimido[4,5-d]pyrimidin-1(2H)-yl)phenyl)acrylamide] | 0.616 | ≤ 0.01 | ≤ 0.01 | 0.01 to 0.1 | ≤ 0.01 | 3.86 | 0.01 to 0.1 | 28.2 | > 100
7 | C=CC(=O)Nc1cccc(N2C(=O)N(c3ccc(OC)cc3)Cc3cnc(Nc4ccc(N5CCN(C)CC5)cc4OC)nc32)c1 [C-EGF25, N-(3-(7-(2-methoxy-4-(4-methylpiperazin-1-yl)phenylamino)-3-(4-methoxyphenyl)-2-oxo-3,4-dihydropyrimido[4,5-d]pyrimidin-1(2H)-yl)phenyl)acrylamide] | 0.198 | ≤ 0.01 | ≤ 0.01 | ≤ 0.01 | ≤ 0.01 | 0.501 | ≤ 0.01 | 1.23 | 54.6
8 | C=CC(=O)Nc1cccc(N2C(=O)N(C)Cc3cnc(Nc4ccc(N5CCCCC5)cc4)nc32)c1 [Compound X002, N-(3-(3-methyl-2-oxo-7-(4-(piperidin-1-yl)phenylamino)-3,4-dihydropyrimido[4,5-d]pyrimidin-1(2H)-yl)phenyl)acrylamide] | 0.154 | ≤ 0.01 | ≤ 0.01 | ≤ 0.01 | ≤ 0.01 | 0.42 | ≤ 0.01 | 8.03 | > 100

Results, then the compound that gave them:

Row | IC50 [1] [µM] | IC50 (EGFRL858R) [µM] | IC50 (EGFRWT) [µM] | IC50 (EGFR T790M kinase) [µM] | IC50 (EGFRL861Q) [µM] | IC50 [2] [µM] | IC50 (EGFRL858R + T790M) [µM] | IC50 [3] [µM] | IC50 [4] [µM] | SMILES
9 | 0.212 | 0.01 to 0.1 | 0.01 to 0.1 | 0.01 to 0.1 | ≤ 0.01 | 0.379 | 0.01 to 0.1 | 10.7 | > 100 | C=CC(=O)Nc1cccc(N2C(=O)N(C)Cc3cnc(Nc4ccc(N5CCSCC5)cc4OC)nc32)c1 [C-EGF09, N-(3-(7-(2-methoxy-4-thiomorpholinophenylamino)-3-methyl-2-oxo-3,4-dihydropyrimido[4,5-d]pyrimidin-1(2H)-yl)phenyl)acrylamide]
10 | 0.31 | 0.01 to 0.1 | 0.01 to 0.1 | 0.1 to 1 | ≤ 0.01 | 2.56 | 0.01 to 0.1 | 17.7 | > 100 | C=CC(=O)Nc1cccc(N2C(=O)N(C)Cc3cnc(Nc4ccc(N5CCCCC5)cc4OC)nc32)c1 [C-EGF11, N-(3-(7-(2-methoxy-4-(piperidin-1-yl)phenylamino)-3-methyl-2-oxo-3,4-dihydropyrimido[4,5-d]pyrimidin-1(2H)-yl)phenyl)acrylamide]
11 | 0.409 | 0.01 to 0.1 | 0.01 to 0.1 | 0.1 to 1 | ≤ 0.01 | 1.53 | 0.01 to 0.1 | 8.16 | 35.6 | C=CC(=O)Nc1cccc(N2C(=O)N(C)Cc3cnc(Nc4ccc(N5CCCC5)cc4OC)nc32)c1 [C-EGF12, N-(3-(7-(2-methoxy-4-(pyrrolidin-1-yl)phenylamino)-3-methyl-2-oxo-3,4-dihydropyrimido[4,5-d]pyrimidin-1(2H)-yl)phenyl)acrylamide]
12 | 0.198 | ≤ 0.01 | ≤ 0.01 | ≤ 0.01 | ≤ 0.01 | 0.568 | ≤ 0.01 | > 100 | > 100 | C=CC(=O)Nc1cccc(N2C(=O)N(C)Cc3cnc(Nc4ccc(N5CCC(N(C)C)CC5)cc4OC)nc32)c1 [C-EGF13, N-(3-(7-(4-(4-(dimethylamino)piperidin-1-yl)-2-methoxyphenylamino)-3-methyl-2-oxo-3,4-dihydropyrimido[4,5-d]pyrimidin-1(2H)-yl)phenyl)acrylamide]
13 | 0.188 | ≤ 0.01 | ≤ 0.01 | 0.01 to 0.1 | ≤ 0.01 | 1.22 | 0.01 to 0.1 | > 100 | > 100 | C=CC(=O)Nc1cccc(N2C(=O)N(C)Cc3cnc(Nc4ccc(N5CCC(N6CCN(C)CC6)CC5)cc4OC)nc32)c1 [C-EGF14, N-(3-(7-(2-methoxy-4-(4-(4-methylpiperazin-1-yl)piperidin-1-yl)phenylamino)-3-methyl-2-oxo-3,4-dihydropyrimido[4,5-d]pyrimidin-1(2H)-yl)phenyl)acrylamide]
14 | 0.062 | ≤ 0.01 | ≤ 0.01 | ≤ 0.01 | ≤ 0.01 | 0.71 | ≤ 0.01 | 11.1 | > 100 | C=CC(=O)Nc1cccc(N2C(=O)N(C)Cc3cnc(Nc4ccc(N5CCCN(C)CC5)cc4OC)nc32)c1 [C-EGF17, N-(3-(7-(2-methoxy-4-(4-methyl-1,4-diazepan-1-yl)phenylamino)-3-methyl-2-oxo-3,4-dihydropyrimido[4,5-d]pyrimidin-1(2H)-yl)phenyl)acrylamide]
15 | > 100 | ≥ 10 | 1 to 10 | ≥ 10 | ≥ 1 | > 100 | 1 to 10 | > 100 | 4.85 | C=CC(=O)Nc1cccc(N2C(=O)N(C)Cc3cnc(Nc4ccc(N5CCN(C)CC5)cc4F)nc32)c1 [C-EGF18, N-(3-(7-(2-fluoro-4-(4-methylpiperazin-1-yl)phenylamino)-3-methyl-2-oxo-3,4-dihydropyrimido[4,5-d]pyrimidin-1(2H)-yl)phenyl)acrylamide]
16 | 0.0002 | ≤ 0.01 | ≤ 0.01 | ≤ 0.01 | ≤ 0.01 | 0.129 | ≤ 0.01 | 24.7 | > 100 | C=CC(=O)Nc1cccc(N2C(=O)N(C(C)C)Cc3cnc(Nc4ccc(N5CCN(C)CC5)cc4OC)nc32)c1 [C-EGF24, N-(3-(3-isopropyl-7-(2-methoxy-4-(4-methylpiperazin-1-yl)phenylamino)-2-oxo-3,4-dihydropyrimido[4,5-d]pyrimidin-1(2H)-yl)phenyl)acrylamide]
